Results taken from US10144706B2 (BRISTOL-MYERS SQUIBB COMPANY, priority 2016, dated 2018).

The molecules below were run against T1, PD-1/PD-L1 interaction (PD-1-Ig / PD-L1-His) (Homo sapiens, UniProt Q9NZQ7) (assay: PD-1/PD-L1 Homogenous Time-Resolved Fluorescence (HTRF) binding assay). Conditions: IC50 range class; PD-L1-His 10 nM, PD-1-Ig 20 nM; read-out: Range or IC50.
T1 construct: hPDL1(18-239)-TVMV-His; TVMV protease site linker (C); made in house; host or cells: HEK293T
Procedure, shortened: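 Human PD-L1-His (10 nM final) was pre-incubated with inhibitor for 15 min, then PD-1-Ig (20 nM final) was added for a further 15 min in dPBS with 0.1% BSA and 0.05% Tween-20. Binding was detected by HTRF using Eu-cryptate anti-Ig (1 nM) and APC anti-His (20 nM).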

T1 sequence (Q9NZQ7 with tags, fused parts or gaps): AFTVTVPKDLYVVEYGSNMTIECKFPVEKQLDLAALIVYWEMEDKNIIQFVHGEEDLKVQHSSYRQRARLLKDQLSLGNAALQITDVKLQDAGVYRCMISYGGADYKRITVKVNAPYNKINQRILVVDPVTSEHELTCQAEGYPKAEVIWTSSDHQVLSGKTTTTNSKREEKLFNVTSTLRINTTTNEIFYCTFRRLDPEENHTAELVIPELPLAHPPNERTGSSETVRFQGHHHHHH

Row | SMILES | IC50
1 | Cc1c(OCCCN2CC[C@@H](O)C2)cccc1-c1ccc(OCCCN2CC[C@H](O)C2)c(OCCCN2CC[C@H](O)C2)c1 [Example 3022, (3S,3′S)-1,1′-(((3′-(3-((R)-3-hydroxypyrrolidin-1-yl)propoxy)-2′-methyl-[1,1′-biphenyl]-3,4-diyl)bis(oxy))bis(propane-3,1-diyl))bis(pyrrolidin-3-ol)] | > 10000 nM
2 | COc1cc(OCc2cccc(-c3cccc(COc4cc(OC)c(CNCc5cncs5)cc4Cl)c3C)c2C)c(Cl)cc1CNCc1cncs1 [Example 5034, 1,1′-((((2,2′-dimethyl-[1,1′-biphenyl]-3,3′-diyl)bis(methylene))bis(oxy))bis(5-chloro-2-methoxy-4,1-phenylene))bis(N-(thiazol-5-ylmethyl)methanamine)] | 20.1 to 90 nM
3 | CC(=O)N1CCN(CCCOc2cccc(-c3cccc(OCCCN4CC[C@@H](O)C4)c3C)c2C)CC1 [Example 2001, (R)-1-(4-(3-((3′-(3-(3-hydroxypyrrolidin-1-yl)propoxy)-2,2′-dimethyl-[1,1′-biphenyl]-3-yl)oxy)propyl)piperazin-1-yl)ethan-1-one] | 20.1 to 90 nM
4 | Cc1c(OCCCN2CC[C@@H](O)C2)cccc1-c1cccc(C(=O)NCCN2CC[C@@H](O)C2)c1C [Example 3015, N-(2-((R)-3-hydroxypyrrolidin-1-yl)ethyl)-3′-(3-((R)-3-hydroxypyrrolidin-1-yl)propoxy)-2,2′-dimethyl-[1,1′-biphenyl]-3-carboxamide] | > 10000 nM
5 | Cc1c(OCCCNCCCN2CCOCC2)cccc1-c1cccc(OCCCN2CC[C@@H](O)C2)c1C [Example 2021, (R)-1-(3-((2,2′-dimethyl-3′-(3-((3-morpholinopropyl)amino)propoxy)-[1,1′-biphenyl]-3-yl)oxy)propyl)pyrrolidin-3-ol] | 20.1 to 90 nM
6 | Cc1c(OCCCN(CCc2ccccn2)C[C@H](O)CO)cccc1-c1cccc(OCCCN(CCc2ccccn2)C[C@H](O)CO)c1C [Example 2101, (2S,2′S)-3,3′-((((2,2′-dimethyl-[1,1′-biphenyl]-3,3′-diyl)bis(oxy))bis(propane-3,1-diyl))bis((2-(pyridin-2-yl)ethyl)azanediyl))bis(propane-1,2-diol)] | 20.1 to 90 nM
7 | Cc1c(OCCCNCC(O)C(=O)O)cccc1-c1cccc(OCCCN2CC[C@@H](O)C2)c1C (stereo partly drawn) [Example 2016, 2-hydroxy-3-((3-((3′-(3-((R)-3-hydroxypyrrolidin-1-yl)propoxy)-2,2′-dimethyl-[1,1′-biphenyl]-3-yl)oxy)propyl)amino)propanoic acid] | 20.1 to 90 nM
8 | Cc1ccc(OCCCN2CC[C@@H](O)C2)cc1-c1cccc(OCCCN2CC[C@@H](O)C2)c1C [Example 1004, (3R,3′R)-1,1′-(((2,6′-dimethyl-[1,1′-biphenyl]-3,3′-diyl)bis(oxy))bis(propane-3,1-diyl))bis(pyrrolidin-3-ol)] | 1000 to 10000 nM
9 | Cc1c(OCCCN[C@@H](CO)C(C)C)cccc1-c1cccc(OCCCN2CC[C@@H](O)C2)c1C [Example 2055, (R)-1-(3-((3′-(3-(((R)-1-hydroxy-3-methylbutan-2-yl)amino)propoxy)-2,2′-dimethyl-[1,1′-biphenyl]-3-yl)oxy)propyl)pyrrolidin-3-ol] | 90.1 to 1000 nM
10 | COc1cc2c(cc1OC)CN(CCCOc1cccc(-c3cccc(OCCCN4CC[C@@H](O)C4)c3C)c1C)CC2 [Example 2004, (R)-1-(3-((3′-(3-(6,7-dimethoxy-3,4-dihydroisoquinolin-2(1H)-yl)propoxy)-2,2′-dimethyl-[1,1′-biphenyl]-3-yl)oxy)propyl)pyrrolidin-3-ol] | 20.1 to 90 nM
11 | Cc1c(COc2cc(OCc3cncc(C#N)c3)c(Cl)cc2Cl)cccc1-c1cccc(COc2cc(OCc3cncc(C#N)c3)c(CN[C@H](C(=O)O)[C@@H](C)[C@H](C)O)cc2Cl)c1C [Example 70050] | 90.1 to 1000 nM
12 | Cc1c(NC(=O)CCN2CC[C@@H](O)C2)cccc1-c1cccc(OCCCN2CC[C@@H](O)C2)c1C [Example 3013, 3-((R)-3-hydroxypyrrolidin-1-yl)-N-(3′-(3-((R)-3-hydroxypyrrolidin-1-yl)propoxy)-2,2′-dimethyl-[1,1′-biphenyl]-3-yl)propanamide] | 1000 to 10000 nM
13 | Cc1c(OCCCN2CCN(CCO)CC2)cccc1-c1cccc(OCCCN2CCN(CCO)CC2)c1C [Example 2085, 2,2′-((((2,2′-dimethyl-[1,1′-biphenyl]-3,3′-diyl)bis(oxy))bis(propane-3,1-diyl))bis(piperazine-4,1-diyl))bis(ethan-1-ol)] | 90.1 to 1000 nM

The next lines start with the values.

Row | IC50 | SMILES
14 | 0.04 to 20 nM | Cc1c(OCCCNCCc2ccncc2)cccc1-c1cccc(OCCCN2CC[C@@H](O)C2)c1C [Example 2035, (R)-1-(3-((2,2′-dimethyl-3′-(3-((2-(pyridin-4-yl)ethyl)amino)propoxy)-[1,1′-biphenyl]-3-yl)oxy)propyl)pyrrolidin-3-ol]
15 | 0.04 to 20 nM | Cc1c(COc2cc(OCc3ccc(-n4cccn4)nc3)c(CNC(C)(CO)CO)cc2Cl)cccc1-c1cccc(COc2cc(OCc3ccc(-n4cccn4)nc3)c(CNC(C)(CO)CO)cc2Cl)c1C [Example 5020, 2,2′-((((((2,2′-dimethyl-[1,1′-biphenyl]-3,3′-diyl)bis(methylene))bis(oxy))bis(2-((6-(1H-pyrazol-1-yl)pyridin-3-yl)methoxy)-5-chloro-4,1-phenylene))bis(methylene))bis(azanediyl))bis(2-methylpropane-1,3-diol)]
16 | 20.1 to 90 nM | O[C@@H]1CCN(CCC2COc3ccc(-c4ccc5c(c4)OC(CCN4CC[C@@H](O)C4)CO5)cc3O2)C1 (stereo partly drawn) [Example 3032, (3R,3′R)-1,1′-((2,2′,3,3′-tetrahydro-[6,6′-bibenzo[b][1,4]dioxine]-3,3′-diyl)bis(ethane-2,1-diyl))bis(pyrrolidin-3-ol)]
17 | 0.04 to 20 nM | Cc1c(OCCCNC[C@H](O)CO)cccc1-c1cccc(OCCCNC[C@H](O)CO)c1C [Example 2079, (2S,2′S)-3,3′-((((2,2′-dimethyl-[1,1′-biphenyl]-3,3′-diyl)bis(oxy))bis(propane-3,1-diyl))bis(azanediyl))bis(propane-1,2-diol)]
18 | 0.04 to 20 nM | Cc1c(COc2cc(OCc3cncc(C#N)c3)c(CN[C@@H](C(=O)O)[C@H](C)O)cc2Cl)cccc1-c1cccc(COc2cc(OCc3cncc(C#N)c3)c(CN[C@@H](C(=O)O)[C@H](C)O)cc2Cl)c1C [Example 40880]
19 | 0.04 to 20 nM | Cc1c(COc2cc(OCc3cncc(C#N)c3)c(CO)cc2Cl)cccc1-c1cccc(COc2cc(OCc3cncc(C#N)c3)c(CN[C@H](C(=O)O)[C@H](C)O)cc2Cl)c1C [Example 50230]
20 | 0.04 to 20 nM | Cc1c(OCCCN(C)C)cccc1-c1cccc(OCCCN2CC[C@@H](O)C2)c1C [Example 3007, (R)-1-(3-((3′-(3-(dimethylamino)propoxy)-2,2′-dimethyl-[1,1′-biphenyl]-3-yl)oxy)propyl)pyrrolidin-3-ol]
21 | 0.04 to 20 nM | Cc1c(COc2cc(OCc3cncc(C#N)c3)c(CO)cc2Cl)cccc1-c1cccc(COc2cc(OCc3cncc(C#N)c3)c(CN[C@H](CO)CC(=O)O)cc2Cl)c1C [Example 50330]
22 | 0.04 to 20 nM | Cc1c(COc2cc(OCc3cncc(C(N)=O)c3)c(CN[C@@H](CCO)C(=O)O)cc2Cl)cccc1-c1cccc(COc2cc(OCc3cncc(C(N)=O)c3)c(CN[C@@H](CCO)C(=O)O)cc2Cl)c1C [Example 40870]
23 | 0.04 to 20 nM | Cc1c(COc2cc(OCc3cncc(C#N)c3)c(CN3CCCC[C@H]3C(=O)O)cc2Cl)cccc1-c1cccc(COc2cc(OCc3cncc(C#N)c3)c(CN3CCCC[C@H]3C(=O)O)cc2Cl)c1C [Example 2119, (2S,2′S)-1,1′-(((((2,2′-dimethyl-[1,1′-biphenyl]-3,3′-diyl)bis(methylene))bis(oxy))bis(5-chloro-2-((5-cyanopyridin-3-yl)methoxy)-4,1-phenylene))bis(methylene))bis(piperidine-2-carboxylic acid)]
24 | 0.04 to 20 nM | Cc1c(COc2cc(OCc3cncc(C#N)c3)c(CN(CC3CC3)C(CCO)C(=O)O)cc2Cl)cccc1-c1cccc(COc2cc(OCc3cncc(C#N)c3)c(CN(CC3CC3)C(CCO)C(=O)O)cc2Cl)c1C (stereo not drawn) [Example 40830]
25 | 0.04 to 20 nM | Cc1c(OCCCN[C@@H]2C[C@H](CO)[C@@H](O)[C@H]2O)cccc1-c1cccc(OCCCN[C@@H]2C[C@H](CO)[C@@H](O)[C@H]2O)c1C [Example 2088, (1S,1′S,2R,2′R,3R,3′R,5R,5′R)-5,5′-((((2,2′-dimethyl-[1,1′-biphenyl]-3,3′-diyl)bis(oxy))bis(propane-3,1-diyl))bis(azanediyl))bis(3-(hydroxymethyl)cyclopentane-1,2-diol)]
26 | 0.04 to 20 nM | CC(=O)c1cc(Cl)c(OCc2cccc(-c3cccc(COc4cc(OCc5cncc(C#N)c5)c(CN[C@](C)(CO)C(=O)O)cc4Cl)c3C)c2C)cc1OCc1cncc(C#N)c1 [Example 60010]
27 | 0.04 to 20 nM | Cc1c(OCCCN2CCCC(CO)C2)cccc1-c1cccc(OCCCN2CCCC(CO)C2)c1C (mixture of isomers) [Example 2026, ((((2,2′-dimethyl-[1,1′-biphenyl]-3,3′-diyl)bis(oxy))bis(propane-3,1-diyl))bis(piperidine-1,3-diyl))dimethanol]
28 | 0.04 to 20 nM | Cc1c(COc2cc(OCc3cncc(C#N)c3)c(CN(CC3CCCO3)C(CCO)C(=O)O)cc2Cl)cccc1-c1cccc(COc2cc(OCc3cncc(C#N)c3)c(CN(CC3CCCO3)C(CCO)C(=O)O)cc2Cl)c1C (stereo not drawn) [Example 41020]
29 | 0.04 to 20 nM | CC(=O)c1cc(Cl)c(OCc2cccc(-c3cccc(COc4cc(OCc5cncc(C#N)c5)c(CN[C@H](C(=O)O)[C@@H](C)O)cc4Cl)c3C)c2C)cc1OCc1cncc(C#N)c1 [Example 60020]

Same assay, conditions: numeric IC50; PD-L1-His 10 nM, PD-1-Ig 20 nM; read-out: Range or IC50

Row | SMILES | IC50
30 | Cc1c(OCCCN(Cc2cncc(C#N)c2)C[C@H](O)CO)cccc1-c1cccc(OCCCN(Cc2cncc(C#N)c2)C[C@H](O)CO)c1C [Example 2099, 5,5′-(((((2,2′-dimethyl-[1,1′-biphenyl]-3,3′-diyl)bis(oxy))bis(propane-3,1-diyl))bis(((S)-2,3-dihydroxypropyl)azanediyl))bis(methylene))dinicotinonitrile] | 1250 nM
